Experimental data: patent publication US20130267551A1, “SUBSTITUTED HYDROGENATED THIENO-PYRROLO[3,2-C]PYRIDINE, LIGANDS, A PHARMACEUTICAL COMPOSITION AND A METHOD FOR USING THE ABOVE” (ALLA CHEM, LLC, priority 2010, published 2013)
Where a name gives a salt, the structure may show the parent alone. Read-outs that look alike come from different tables or passages of the source.

Assays:
[1] = tested on: Serotoninergic 5-HT1B; experiment: competitive radioligand binding, Serotoninergic 5-HT1B; settings: compound concentration of 1 μM
Experimental: (§1) Profiles of pharmacological activity of thieno-pyrrolo[3,2-c]pyridines of the general formula 1. Biological activity test of compounds of the general formula 1 was carried out in the setting of competitive radioligand binding [I. Okun, S. Tkachenko, A. Khvat, et al., Current Alzheimer Research, 7(2), 97-112 (2010)], using a wide range of therapeutic targets including G-protein coupled receptors (GPCR), ion channels and neuromediator transporters. The tested activity was determined by quantitative measurement of radio-labelled ligand displacement by tested compounds of the general formula 1 at their concentration of 1 μM.

[2] = biological target: Histaminergic H1 (Homo sapiens, UniProt P35367); experiment: competitive radioligand binding, Histaminergic H1; settings: compound concentration of 1 μM; read-out: radio-labelled ligand displacement, Histaminergic H1
Chain of Histaminergic H1 (P35367 whole entry): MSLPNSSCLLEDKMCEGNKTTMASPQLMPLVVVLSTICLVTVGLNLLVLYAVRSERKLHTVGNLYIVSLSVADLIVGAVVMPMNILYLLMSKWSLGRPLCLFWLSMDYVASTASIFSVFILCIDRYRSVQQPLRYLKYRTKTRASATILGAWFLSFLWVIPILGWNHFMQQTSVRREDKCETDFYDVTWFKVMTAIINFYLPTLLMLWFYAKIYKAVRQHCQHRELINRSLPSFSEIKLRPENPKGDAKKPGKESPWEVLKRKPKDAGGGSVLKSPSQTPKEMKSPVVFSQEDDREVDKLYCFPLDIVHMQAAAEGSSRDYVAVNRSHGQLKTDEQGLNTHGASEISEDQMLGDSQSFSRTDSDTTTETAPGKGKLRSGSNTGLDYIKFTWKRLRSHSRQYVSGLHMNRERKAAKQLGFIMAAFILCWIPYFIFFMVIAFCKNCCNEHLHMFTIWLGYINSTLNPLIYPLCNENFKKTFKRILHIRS
Experimental: as §1

[3] = biological target: T1, Adrenergic α2A (Homo sapiens, UniProt P08913); experiment: competitive radioligand binding, Adrenergic α2A; settings: read-out: radio-labelled ligand displacement, Adrenergic α2A
T1 sequence (P08913 1-465): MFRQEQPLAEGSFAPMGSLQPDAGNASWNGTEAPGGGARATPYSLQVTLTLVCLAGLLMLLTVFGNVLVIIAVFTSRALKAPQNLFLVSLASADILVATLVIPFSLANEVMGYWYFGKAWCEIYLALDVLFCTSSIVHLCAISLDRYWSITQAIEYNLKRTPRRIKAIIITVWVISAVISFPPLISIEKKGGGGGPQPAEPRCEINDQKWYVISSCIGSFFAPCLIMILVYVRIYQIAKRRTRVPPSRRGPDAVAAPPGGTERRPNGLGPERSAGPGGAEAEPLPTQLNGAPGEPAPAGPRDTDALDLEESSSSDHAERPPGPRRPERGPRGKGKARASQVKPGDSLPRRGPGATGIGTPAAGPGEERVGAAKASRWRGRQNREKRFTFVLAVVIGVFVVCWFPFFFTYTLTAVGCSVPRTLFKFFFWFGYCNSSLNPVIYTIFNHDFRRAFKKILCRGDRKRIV
Experimental: as §1

[4] = biological target: T2, Serotoninergic 5-HT1A (Homo sapiens, UniProt P08908); experiment: competitive radioligand binding, Serotoninergic 5-HT1A; settings: compound concentration of 1 μM; read-out: radio-labelled ligand displacement, Serotoninergic 5-HT1A
T2 sequence (P08908 1-422): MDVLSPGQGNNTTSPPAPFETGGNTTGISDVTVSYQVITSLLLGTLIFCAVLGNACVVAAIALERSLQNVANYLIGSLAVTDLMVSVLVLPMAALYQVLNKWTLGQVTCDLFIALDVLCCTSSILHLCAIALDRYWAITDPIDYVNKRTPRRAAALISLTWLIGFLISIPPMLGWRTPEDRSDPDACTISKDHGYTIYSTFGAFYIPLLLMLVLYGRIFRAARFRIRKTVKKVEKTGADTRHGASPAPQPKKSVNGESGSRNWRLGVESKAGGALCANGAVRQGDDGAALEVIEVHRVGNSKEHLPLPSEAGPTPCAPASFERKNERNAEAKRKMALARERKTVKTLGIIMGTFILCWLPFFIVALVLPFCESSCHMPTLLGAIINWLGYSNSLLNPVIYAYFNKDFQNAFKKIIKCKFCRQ
Experimental: as §1

[5] = biological target: Serotoninergic 5-HT6 (Homo sapiens, UniProt P50406); experiment: competitive radioligand binding, Serotoninergic 5-HT6; settings: compound concentration of 1 μM; read-out: radio-labelled ligand displacement, Serotoninergic 5-HT6
Chain of Serotoninergic 5-HT6 (P50406 whole entry): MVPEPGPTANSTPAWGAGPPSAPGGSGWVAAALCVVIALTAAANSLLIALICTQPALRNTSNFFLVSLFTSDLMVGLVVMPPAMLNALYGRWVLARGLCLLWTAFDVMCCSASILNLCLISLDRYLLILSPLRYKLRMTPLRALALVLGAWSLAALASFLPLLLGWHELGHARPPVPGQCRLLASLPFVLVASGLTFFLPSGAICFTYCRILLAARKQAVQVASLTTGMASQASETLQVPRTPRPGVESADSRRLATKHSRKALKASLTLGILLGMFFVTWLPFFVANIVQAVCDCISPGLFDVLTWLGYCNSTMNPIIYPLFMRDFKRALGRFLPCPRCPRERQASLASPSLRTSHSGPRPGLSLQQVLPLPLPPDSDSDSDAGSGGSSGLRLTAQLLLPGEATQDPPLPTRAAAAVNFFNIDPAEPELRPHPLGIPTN
Experimental: as §1

[6] = biological target: Dopaminergic D3 (Homo sapiens, UniProt P35462); experiment: competitive radioligand binding, Dopaminergic D3; settings: compound concentration of 1 μM; read-out: radio-labelled ligand displacement, Dopaminergic D3
Chain of Dopaminergic D3 (P35462 whole entry): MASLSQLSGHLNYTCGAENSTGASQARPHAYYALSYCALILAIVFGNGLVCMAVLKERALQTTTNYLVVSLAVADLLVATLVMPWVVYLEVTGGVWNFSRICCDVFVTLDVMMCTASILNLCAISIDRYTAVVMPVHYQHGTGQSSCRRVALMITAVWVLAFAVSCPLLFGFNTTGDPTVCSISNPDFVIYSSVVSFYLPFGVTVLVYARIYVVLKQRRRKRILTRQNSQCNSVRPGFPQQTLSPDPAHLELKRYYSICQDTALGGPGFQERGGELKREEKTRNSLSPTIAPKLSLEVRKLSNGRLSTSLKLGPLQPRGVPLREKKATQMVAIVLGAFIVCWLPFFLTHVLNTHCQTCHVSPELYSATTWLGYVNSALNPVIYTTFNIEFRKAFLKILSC
Experimental: as §1

[7] = biological target: Dopaminergic D2L (Homo sapiens, UniProt P14416); experiment: competitive radioligand binding, Dopaminergic D2L; settings: compound concentration of 1 μM; read-out: radio-labelled ligand displacement, Dopaminergic D2L
Chain of Dopaminergic D2L (P14416 whole entry): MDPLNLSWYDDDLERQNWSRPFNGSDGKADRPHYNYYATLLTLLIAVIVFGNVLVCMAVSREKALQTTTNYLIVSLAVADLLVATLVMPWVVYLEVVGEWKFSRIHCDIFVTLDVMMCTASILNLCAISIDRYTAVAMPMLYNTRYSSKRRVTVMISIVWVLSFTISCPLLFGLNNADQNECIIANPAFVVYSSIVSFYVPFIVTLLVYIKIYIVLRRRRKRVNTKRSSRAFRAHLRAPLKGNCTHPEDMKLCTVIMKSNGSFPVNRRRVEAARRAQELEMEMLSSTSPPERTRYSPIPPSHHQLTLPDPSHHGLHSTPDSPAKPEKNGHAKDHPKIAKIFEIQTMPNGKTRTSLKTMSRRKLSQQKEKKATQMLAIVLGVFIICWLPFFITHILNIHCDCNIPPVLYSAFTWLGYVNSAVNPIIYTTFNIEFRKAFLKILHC
Experimental: as §1

[8] = biological target: Histaminergic H3 (Homo sapiens, UniProt Q9Y5N1); experiment: competitive radioligand binding, Histaminergic H3; settings: compound concentration of 1 μM; read-out: radio-labelled ligand displacement, Histaminergic H3
Chain of Histaminergic H3 (Q9Y5N1 whole entry): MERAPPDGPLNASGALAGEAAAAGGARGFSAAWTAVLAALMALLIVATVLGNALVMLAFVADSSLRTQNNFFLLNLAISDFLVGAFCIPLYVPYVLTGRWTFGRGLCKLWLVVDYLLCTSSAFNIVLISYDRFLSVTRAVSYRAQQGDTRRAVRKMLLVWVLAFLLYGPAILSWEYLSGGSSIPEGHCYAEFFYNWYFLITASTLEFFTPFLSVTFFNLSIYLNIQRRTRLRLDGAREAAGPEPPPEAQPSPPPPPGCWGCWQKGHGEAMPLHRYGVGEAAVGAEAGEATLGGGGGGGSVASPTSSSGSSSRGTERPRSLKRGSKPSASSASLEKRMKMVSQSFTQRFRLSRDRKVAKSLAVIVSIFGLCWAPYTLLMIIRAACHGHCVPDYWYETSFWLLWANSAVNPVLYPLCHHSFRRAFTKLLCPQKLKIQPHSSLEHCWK
Experimental: as §1

[9] = biological target: Serotoninergic 5-HT7 (Homo sapiens, UniProt P34969); experiment: competitive radioligand binding, Serotoninergic 5-HT7; settings: compound concentration of 1 μM; read-out: radio-labelled ligand displacement, Serotoninergic 5-HT7
Chain of Serotoninergic 5-HT7 (P34969 whole entry): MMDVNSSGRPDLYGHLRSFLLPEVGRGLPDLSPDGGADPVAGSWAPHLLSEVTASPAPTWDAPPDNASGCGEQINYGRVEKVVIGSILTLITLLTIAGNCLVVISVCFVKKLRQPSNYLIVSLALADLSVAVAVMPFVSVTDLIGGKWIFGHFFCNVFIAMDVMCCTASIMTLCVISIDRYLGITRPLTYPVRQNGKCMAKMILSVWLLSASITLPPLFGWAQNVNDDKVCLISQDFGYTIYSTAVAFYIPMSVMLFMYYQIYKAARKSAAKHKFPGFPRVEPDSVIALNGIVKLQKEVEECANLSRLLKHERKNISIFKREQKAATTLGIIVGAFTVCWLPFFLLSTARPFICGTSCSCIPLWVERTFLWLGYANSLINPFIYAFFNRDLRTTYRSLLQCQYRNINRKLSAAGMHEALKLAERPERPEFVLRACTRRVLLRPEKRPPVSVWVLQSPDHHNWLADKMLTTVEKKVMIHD
Experimental: as §1

[10] = biological target: Dopaminergic D1 (Homo sapiens, UniProt P21728); experiment: competitive radioligand binding, Dopaminergic D1; settings: compound concentration of 1 μM; read-out: radio-labelled ligand displacement, Dopaminergic D1
Chain of Dopaminergic D1 (P21728 whole entry): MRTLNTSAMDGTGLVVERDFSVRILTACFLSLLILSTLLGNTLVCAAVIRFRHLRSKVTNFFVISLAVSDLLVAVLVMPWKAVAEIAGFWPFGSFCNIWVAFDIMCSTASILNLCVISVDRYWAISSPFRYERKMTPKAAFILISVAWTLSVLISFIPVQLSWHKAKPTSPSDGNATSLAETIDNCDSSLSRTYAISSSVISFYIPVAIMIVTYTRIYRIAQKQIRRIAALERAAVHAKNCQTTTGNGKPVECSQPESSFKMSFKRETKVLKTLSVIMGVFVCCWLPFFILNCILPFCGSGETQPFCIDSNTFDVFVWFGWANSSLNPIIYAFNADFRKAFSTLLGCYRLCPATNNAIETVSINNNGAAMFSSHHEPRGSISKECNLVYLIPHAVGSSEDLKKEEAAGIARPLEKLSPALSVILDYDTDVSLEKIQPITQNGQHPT
Experimental: as §1

[11] = biological target: Dopaminergic D2S (Homo sapiens, UniProt P14416); experiment: competitive radioligand binding, Dopaminergic D2S; settings: compound concentration of 1 μM; read-out: radio-labelled ligand displacement, Dopaminergic D2S
Chain of Dopaminergic D2S (P14416 1-414 isoform P14416-2): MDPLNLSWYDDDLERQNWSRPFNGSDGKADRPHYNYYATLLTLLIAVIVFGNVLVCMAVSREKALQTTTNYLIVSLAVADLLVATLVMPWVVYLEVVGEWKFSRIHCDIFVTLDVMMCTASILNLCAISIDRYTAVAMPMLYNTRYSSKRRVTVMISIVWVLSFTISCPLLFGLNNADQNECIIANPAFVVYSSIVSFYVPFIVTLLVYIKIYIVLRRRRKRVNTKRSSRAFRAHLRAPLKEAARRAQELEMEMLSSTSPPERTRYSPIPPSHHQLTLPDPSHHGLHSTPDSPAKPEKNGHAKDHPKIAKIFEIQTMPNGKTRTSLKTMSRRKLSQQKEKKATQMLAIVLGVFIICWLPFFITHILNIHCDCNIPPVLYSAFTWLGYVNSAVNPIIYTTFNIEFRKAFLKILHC
Experimental: as §1

[12] = biological target: Serotoninergic 5-HT2A (Homo sapiens, UniProt P28223); experiment: competitive radioligand binding, Serotoninergic 5-HT2A; settings: read-out: radio-labelled ligand displacement, Serotoninergic 5-HT2A
Chain of Serotoninergic 5-HT2A (P28223 whole entry): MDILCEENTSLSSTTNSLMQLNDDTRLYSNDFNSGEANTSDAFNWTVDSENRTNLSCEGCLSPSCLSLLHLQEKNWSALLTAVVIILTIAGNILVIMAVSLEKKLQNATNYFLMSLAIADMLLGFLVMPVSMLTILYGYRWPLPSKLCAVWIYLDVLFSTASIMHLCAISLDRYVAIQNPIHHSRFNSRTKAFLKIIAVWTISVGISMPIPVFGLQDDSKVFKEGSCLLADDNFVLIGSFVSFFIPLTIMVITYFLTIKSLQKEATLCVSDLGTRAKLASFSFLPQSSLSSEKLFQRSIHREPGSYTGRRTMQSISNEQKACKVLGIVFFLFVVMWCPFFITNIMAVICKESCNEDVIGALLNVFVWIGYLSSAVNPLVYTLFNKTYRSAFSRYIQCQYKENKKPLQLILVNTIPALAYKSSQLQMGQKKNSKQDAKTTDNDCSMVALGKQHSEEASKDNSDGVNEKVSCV
Experimental: as §1

[13] = biological target: T3, Adrenergic α1D (Homo sapiens, UniProt P25100); experiment: competitive radioligand binding, Adrenergic α1D; settings: compound concentration of 1 μM; read-out: radio-labelled ligand displacement, Adrenergic α1D
T3 sequence (P25100 1-572): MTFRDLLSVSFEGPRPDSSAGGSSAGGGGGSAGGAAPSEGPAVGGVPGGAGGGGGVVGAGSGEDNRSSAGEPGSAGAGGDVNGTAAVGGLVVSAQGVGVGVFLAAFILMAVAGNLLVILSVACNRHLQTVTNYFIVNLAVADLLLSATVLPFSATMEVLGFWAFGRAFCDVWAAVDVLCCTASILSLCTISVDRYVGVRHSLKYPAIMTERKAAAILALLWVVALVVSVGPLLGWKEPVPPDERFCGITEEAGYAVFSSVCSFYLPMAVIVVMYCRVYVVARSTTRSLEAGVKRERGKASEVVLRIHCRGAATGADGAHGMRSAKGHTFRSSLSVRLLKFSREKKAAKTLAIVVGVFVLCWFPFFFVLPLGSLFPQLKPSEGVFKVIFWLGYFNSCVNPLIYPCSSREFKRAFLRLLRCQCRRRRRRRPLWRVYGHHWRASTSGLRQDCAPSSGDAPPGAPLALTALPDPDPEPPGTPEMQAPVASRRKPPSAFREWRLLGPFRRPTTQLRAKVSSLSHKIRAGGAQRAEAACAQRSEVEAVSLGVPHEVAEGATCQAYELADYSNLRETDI
Experimental: as §1

[14] = tested on: Adrenergic α1B; experiment: competitive radioligand binding, Adrenergic α1B; settings: compound concentration of 1 μM
Experimental: as §1

Row | Structure (SMILES) | radio-labelled ligand displacement, Serotoninergic 5-HT1B [1] | inhibition at 1 µM [2] | inhibition at 1 µM ([3]; compound concentration of 1 μM) | inhibition at 1 µM [4] | inhibition at 1 µM [5] | inhibition at 1 µM [6] | inhibition at 1 µM [7] | inhibition at 1 µM [8] | inhibition at 1 µM [9] | inhibition at 1 µM [10] | inhibition at 1 µM [11] | inhibition at 1 µM [12] | inhibition at 1 µM [13] | radio-labelled ligand displacement, Adrenergic α1B [14] | inhibition at 1 µM [3]
1 | Cc1cc2c(s1)c1c(n2-c2cccc(F)c2)CCN(C)C1 [2.4(3)•HCl, 2,7-dimethyl-4-(3-fluorophenyl)-5,6,7,8-tetrahydro-4H-thieno[2′,3′:4,5]pyrrolo[3,2-c]pyridine] | 5% | 38% | 14% | 3% | 26% | 11% | 4% | 1% | 43% | 5% | 3% | 41% | 28% | 10% | –
2 | Cc1cc2c(s1)c1c(n2Cc2ccccc2)CCN(C)C1.Cl [2.5(1)•HCl, 4-Benzyl-2,7-dimethyl-5,6,7,8-tetrahydro-4H-thieno[2′,3′:4,5]pyrrolo[3,2-c]pyridine hydrochloride] | 6% | 96% | – | 3% | 55% | 16% | 8% | -4% | 92% | 5% | -6% | 93% | 21% | 10% | 34%
3 | Cc1ccc(Cn2c3c(c4sc(Cl)cc42)C(C)N(C)C(C)C3)cn1 (stereo not shown) [2.5(4)•HCl, 4-(6-methylpyridin-3-ylmethyl)-6,7,8-trimethyl-2-chloro-5,6,7,8-tetrahydro-4H-thieno[2′,3′:4,5]pyrrolo[3,2-c]pyridine] | 28% | 70% | 42% | 35% | 85% | 15% | 11% | 9% | 87% | 3% | 17% | 91% | 29% | 38% | –
4 | Cc1cc2c(s1)c1c(n2CCc2ccccc2)CCN(C)C1.Cl [2.6(1)•HCl, 2,7-Dimethyl-4-(2-phenylethyl)-5,6,7,8-tetrahydro-4H-thieno[2′,3′:4,5]pyrrolo[3,2-c]pyridine hydrochloride] | 18% | 97% | – | 16% | 98% | 62% | 76% | -15% | 98% | 15% | 73% | 99% | 64% | 90% | 80%
5 | CC1Cc2c(c3sc(Cl)cc3n2C#Cc2cccc(F)c2)C(C)N1C (stereo not shown) [2.10(3)•HCl, 6,7,8-trimethyl-4-(3-fluorophenyl)ethynyl-2-chloro-5,6,7,8-tetrahydro-4H-thieno[2′,3′:4,5]pyrrolo[3,2-c]pyridine] | 9% | 65% | 17% | 6% | 35% | 23% | 20% | -10% | 33% | 4% | 31% | 43% | 11% | 5% | –
6 | Cc1ccc(CCCn2c3c(c4scc(Cl)c42)CN(C)CC3)cn1 [2.12(5)•HCl, 7-methyl-4-[3-(6-methylpyridin-3-yl)propyl]-3-chloro-5,6,7,8-tetrahydro-4H-thieno[2′,3′:4,5]pyrrolo[3,2-c]pyridine] | 62% | 99% | 101% | 57% | 100% | 71% | 87% | 12% | 99% | 75% | 89% | 99% | 93% | 97% | –
7 | Cc1cc2c3c(n(Cc4ccccc4)c2s1)CCN(C)C3.Cl [3.5(1)•HCl, 8-Benzyl-2,5-dimethyl-5,6,7,8-tetrahydro-4H-thieno[3′,2′:4,5]pyrrolo[3,2-c]pyridine hydrochloride] | 10% | 96% | – | 42% | 85% | 19% | 14% | 18% | 95% | 5% | 23% | 100% | 44% | 57% | 64%
8 | Cc1cc2c3c(n(CCc4ccccc4)c2s1)CCN(C)C3.Cl [3.6(1)•HCl, 2,5-Dimethyl-8-(2-phenylethyl)-5,6,7,8-tetrahydro-4H-thieno[3′,2′:4,5]pyrrolo[3,2-c]pyridine hydrochloride] | 47% | 98% | – | 48% | 103% | 73% | 87% | -17% | 99% | 70% | 86% | 101% | 92% | 99% | 100%
